In data set [1] the target is T1, α-glucosidase (Saccharomyces cerevisiae, UniProt P53341). The settings on record: cited from earlier work.
Data set [2] deals with T1, α-glucosidase. In words: Fluorescence quenching spectroscopy. Format: binding. Also on record: ΔS: unit not given here. As to conditions: for Kq quenching rate constant / n binding sites: 25 °C; for ΔS: standard thermodynamic values from KA. The protocol:
Fluorescence spectrometry was used for studying the interactions between selected α-glucosidase inhibitors (7a, 7d, and 7h) and the enzyme at 25 °C and pH 6.8 to determine the binding constants, number of binding sites, and thermodynamic parameters of the corresponding interactions. Herein, the maximum fluorescence intensity of α-glucosidase was obtained at 340 nm, which can be attributed to tryptophan, tyrosine, and phenylalanine residues that can act as intrinsic fluorescence probes with excitation at 280 nm.
The fluorescence measurements were performed on a Synergy HTX multi-mode reader (Biotek Instruments, Winooski, VT, USA) equipped with a quartz cuvette of 10 mm. The excitation wavelength was 280 nm and the emission spectra were measured in the range from 300 to 440 nm with 10 accumulations for each collection point. The emission spectrum was corrected for the background fluorescence from the buffer solution and for the inner filter effect promoted by the inhibitors. The protein-inhibitors interaction measurements were performed by collecting the fluorescence.
The fluorescence quenching of the protein (P) by a drug or inhibitor (D) was analyzed by Stern−Volmer equation (Eq. 1), where F0 and F are the fluorescence intensity in the absence and presence of a quencher (inhibitor), respectively. [D] is the concentration of inhibitor, Kq is the quenching rate constant, τ0 is the average life-time of the molecule without the quencher (10^−8 s), and KSV is the Stern−Volmer dynamic quenching constant.1 F0/F=1+Kqτ0D=1+KSVD
The reaction of the protein (P) and a drug molecule or inhibitor (D) was considered as Eq. 2, where P is the protein, D is the drug molecule, and DnP is the new complex molecule with the binding constant of KA.2 P+D→DnP
As the number of the binding site of protein and drug is respectively n and 1, the equivalent concentration of the complex DnP is n[DnP]; the equivalent concentration of the protein is n[P] and the equivalent concentration of the drug is [D]. In this respect, the KA value is calculated based on the Eq. (3).3 KA=nDnP/DnP
If the total concentration of protein is [Pt] and the total concentration of the drug is [Dt]: [Pt] = [Pf] + [DnP] and [Df] = [Dt] − n[DnP].
If protein (P) is the only fluorescence in the reaction system, thus:4 F0/F=Pt/Pf where F and F0 are the fluorescence intensity of protein in the presence and absence of drug D, respectively. Therefore, the relationship between the fluorescence intensity and the drug total concentration can be deduced from Eq. (5).5 F0/F=KADtF0/F0-F-nKAPt
Keeping the total concentration of protein at a definite value and varying the total concentration of the drug leads to obtaining the plot of F0/F as a function of [Dt] F0/(F0 − F) following with the calculation of KA.
The standard thermodynamic values were calculated according to Eqs. (6), (7), where ΔH, ΔG, and ΔS are enthalpy, free energy, and entropy changes, respectively. In the case of small changes in temperature, the enthalpy change can be considered as a constant and ΔH is calculated from Eq. (6) following with the calculation of ΔG and ΔS from Eq. (7).6 lnKA2/KA1=1/T1-1/T2ΔH/R 7 ΔG=-RTlnKA=ΔH-TΔS

In data set [3] the target is T1, α-glucosidase. Description: Fluorescence quenching spectroscopy. As to conditions: 35 °C. Format: binding.
Data set [4] has as its system HEK293 cell line. As to conditions: no reference given; cited from earlier work.

By IC50 is commonly meant the concentration that gives 50% inhibition. For orientation: melting point means the temperature of the solid-liquid transition.

T1 sequence (P53341 whole entry): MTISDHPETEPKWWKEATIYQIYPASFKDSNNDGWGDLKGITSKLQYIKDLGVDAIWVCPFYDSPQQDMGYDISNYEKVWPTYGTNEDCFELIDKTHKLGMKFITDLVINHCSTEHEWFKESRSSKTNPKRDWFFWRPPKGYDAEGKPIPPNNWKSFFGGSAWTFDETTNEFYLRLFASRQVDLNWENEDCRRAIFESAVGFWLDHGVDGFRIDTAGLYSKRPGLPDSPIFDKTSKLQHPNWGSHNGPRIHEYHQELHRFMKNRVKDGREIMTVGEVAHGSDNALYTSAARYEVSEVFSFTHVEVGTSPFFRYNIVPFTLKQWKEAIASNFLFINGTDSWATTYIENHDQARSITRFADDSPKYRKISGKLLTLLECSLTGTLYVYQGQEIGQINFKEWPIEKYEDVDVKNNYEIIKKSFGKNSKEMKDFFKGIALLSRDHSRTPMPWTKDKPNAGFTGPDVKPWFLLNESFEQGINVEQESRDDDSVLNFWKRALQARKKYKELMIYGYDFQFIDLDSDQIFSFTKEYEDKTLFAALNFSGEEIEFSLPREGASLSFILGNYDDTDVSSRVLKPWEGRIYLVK

Consider `O=c1oc2ccccc2c(O)c1C(c1ccc(OCc2cn(Cc3ccccc3Cl)nn2)cc1)c1c(O)c2ccccc2oc1=O` [A], for which, in data set [1], the IC50 was 13 ± 1.5 µM and the mode of inhibition entry is recorded as “competitive”.

As to `O=C1Nc2ccccc2/C1=N/N=C/c1ccc(OCc2cn(Cc3ccccc3F)nn2)cc1` [C], in data set [1], the IC50 was 16.43 ± 0.01 µM and the mode of inhibition result was “competitively”.

In the case of `O=C(NN=Cc1ccccc1)c1ccc(OCc2cn(Cc3ccccc3)nn2)cc1` [Compound 7a, 4-((1-Benzyl-1H-1,2,3-triazol-4-yl)methoxy)-N′-benzylidenebenzohydrazide], in data set [2], the “Kq quenching rate constant” value came to 1.5e+15 M⁻¹ s⁻¹, the n binding sites turned out to be 0.8 and the ΔS is 48.37. The “Kq quenching rate constant” value in data set [3] was 9e+15 M⁻¹ s⁻¹.

`O=C(NN=Cc1ccccc1)c1ccc(OCc2cn(Cc3ccc(F)cc3)nn2)cc1` [Compound 7b, N′-Benzylidene-4-((1-(4-fluorobenzyl)-1H-1,2,3-triazol-4-yl)methoxy)benzohydrazide] came in with a melting point of 160 to 163 °C.

As to `O=C(NN=Cc1ccccc1)c1ccc(OCc2cn(Cc3ccccc3Cl)nn2)cc1` [Compound 7c, N′-Benzylidene-4-((1-(2-chlorobenzyl)-1H-1,2,3-triazol-4-yl)methoxy)benzohydrazide], the melting point lay in the range of 203 to 207 °C.

As for `Cc1ccc(Cn2cc(COc3ccc(C(=O)NN=Cc4ccccc4)cc3)nn2)cc1` [Compound 7d, N′-Benzylidene-4-((1-(4-methylbenzyl)-1H-1,2,3-triazol-4-yl)methoxy)benzohydrazide], the melting point is 154 to 156 °C. Further, in data set [2], the “Kq quenching rate constant” value is 4.2e+15 M⁻¹ s⁻¹, the n binding sites was 0.1 and the ΔS came out at 146.0. Further, in data set [3], the “Kq quenching rate constant” value is 1e+15 M⁻¹ s⁻¹.

Consider `O=C(NN=Cc1ccc([N+](=O)[O-])cc1)c1ccc(OCc2cn(Cc3ccccc3)nn2)cc1` [Compound 7e, 4-((1-Benzyl-1H-1,2,3-triazol-4-yl)methoxy)-N′-(4-nitrobenzylidene)benzohydrazide], for which the melting point was in the range of 193 to 196 °C.

Take `O=C(NN=Cc1ccc([N+](=O)[O-])cc1)c1ccc(OCc2cn(Cc3ccc(F)cc3)nn2)cc1` [Compound 7f, 4-((1-(4-Fluorobenzyl)-1H-1,2,3-triazol-4-yl)methoxy)-N′-(4-nitrobenzylidene)benzohydrazide]: the melting point was 202 to 205 °C.

`O=C(NN=Cc1ccc([N+](=O)[O-])cc1)c1ccc(OCc2cn(Cc3ccccc3Cl)nn2)cc1` [Compound 7g, 4-((1-(2-Chlorobenzyl)-1H-1,2,3-triazol-4-yl)methoxy)-N′-(4-nitrobenzylidene)benzohydrazide] came in with a melting point of 204 to 206 °C.

The compound `Cc1ccc(Cn2cc(COc3ccc(C(=O)NN=Cc4ccc([N+](=O)[O-])cc4)cc3)nn2)cc1` [Compound 7h, 4-((1-(4-Methylbenzyl)-1H-1,2,3-triazol-4-yl)methoxy)-N′-(4-nitrobenzylidene)benzohydrazide] displayed a melting point of 247 to 250 °C. In addition, in data set [2], the “Kq quenching rate constant” value was 1e+15 M⁻¹ s⁻¹, the n binding sites is reported as 0.06 and the ΔS came out at 71.1. In addition, the “Kq quenching rate constant” value in data set [3] came to 6.8e+15 M⁻¹ s⁻¹.

Consider `O=C(NN=Cc1ccc(Cl)cc1)c1ccc(OCc2cn(Cc3ccccc3)nn2)cc1` [Compound 7i, 4-((1-Benzyl-1H-1,2,3-triazol-4-yl)methoxy)-N′-(4-chlorobenzylidene)benzohydrazide], for which the melting point fell in the range of 211 to 214 °C.

As to `O=C(NN=Cc1ccc(Cl)cc1)c1ccc(OCc2cn(Cc3ccc(F)cc3)nn2)cc1` [Compound 7j, N′-(4-Chlorobenzylidene)-4-((1-(4-fluorobenzyl)-1H-1,2,3-triazol-4-yl)methoxy)benzohydrazide], the melting point was 236 to 238 °C.

The compound `O=C(NN=Cc1ccc(Cl)cc1)c1ccc(OCc2cn(Cc3ccccc3Cl)nn2)cc1` [Compound 7k, 4-((1-(2-Chlorobenzyl)-1H-1,2,3-triazol-4-yl)methoxy)-N′-(4-chlorobenzylidene)benzohydrazide] showed a melting point of 246 to 248 °C.

For `Cc1ccc(Cn2cc(COc3ccc(C(=O)NN=Cc4ccc(Cl)cc4)cc3)nn2)cc1` [Compound 7l, N′-(4-Chlorobenzylidene)-4-((1-(4-methylbenzyl)-1H-1,2,3-triazol-4-yl)methoxy)benzohydrazide], the melting point is 216 to 218 °C.

Regarding `COc1ccc(C=NNC(=O)c2ccc(OCc3cn(Cc4ccccc4)nn3)cc2)cc1` [Compound 7m, 4-((1-Benzyl-1H-1,2,3-triazol-4-yl)methoxy)-N′-(4-methoxybenzylidene)benzohydrazide], the melting point was in the range of 237 to 240 °C.

As to `COc1ccc(C=NNC(=O)c2ccc(OCc3cn(Cc4ccccc4Cl)nn3)cc2)cc1` [Compound 7o, 4-((1-(2-Chlorobenzyl)-1H-1,2,3-triazol-4-yl)methoxy)-N′-(4-methoxybenzylidene)benzohydrazide], the melting point fell in the range of 222 to 225 °C.

`COc1ccc(C=NNC(=O)c2ccc(OCc3cn(Cc4ccc(C)cc4)nn3)cc2)cc1` [Compound 7p, N′-(4-Methoxybenzylidene)-4-((1-(4-methylbenzyl)-1H-1,2,3-triazol-4-yl)methoxy)benzohydrazide] yielded a melting point of 224 to 228 °C.

Regarding `CCc1ccc(NC(=O)Cn2cc(COc3ccc(-c4nc5ccccc5[nH]4)cc3)nn2)cc1` [Compound B], the IC50 in data set [1] was 25.2 ± 0.9 µM.

Regarding `COC(=O)c1c(C)cc(OC(=O)c2c(C)cc(O)c(/C=N/NC(=O)Cc3ccccc3)c2O)c(C)c1O` [E], the “toxicity on the HEK293 cell line” value in data set [4] is listed as “without toxicity”.

(Values after PMC10235848, “Novel N′-substituted benzylidene benzohydrazides linked to 1,2,3-triazoles: potent α-glucosidase inhibitors” (Scientific Reports, 2023).)
